Legend:
Brassica napus (BRSNS) = assay: In vivo analyses Part A: drought stress, visual damage scoring, efficacy EF (BRSNS); conditions: spray application 250 g/ha, efficacy = reduction in damage intensity
Description: (§1) Seeds of monocotyledonous and dicotyledonous crop plants were sown in sandy loam in wood-fibre pots, covered with soil or sand and cultivated in a greenhouse under good growth conditions. The test plants were treated at the early leaf stage (BBCH10-BBCH13). To assure uniform water supply before commencement of stress, the potted plants were supplied with water by dam irrigation prior to substance application. The inventive compounds, formulated in the form of wettable powders (WP), were sprayed onto the green parts of the plants as an aqueous suspension at an equivalent water application rate of 600 I/ha with addition of 0.2% wetting agent (e.g. agrotin). Substance application was followed immediately by stress treatment of the plants. For this purpose, the pots were transferred in plastic inserts in order to prevent them from subsequently drying out too quickly. Drought stress was induced by gradual drying out under the following conditions: “Day”: 14 hours with illumination at 26° C. “Night”: 10 hours without illumination at 18° C. The duration of the respective stress phases was guided mainly by the condition of the stressed control plants. It was ended (by re-irrigating and transfer to a greenhouse with good growth conditions) as soon as irreversible damage was observed on the stressed control plants. The end of the stress phase was followed by an about 4-7-day recovery phase, during which the plants were once again kept under good growth conditions in a greenhouse. The duration of the recovery phase was guided mainly by when the trial plants had attained a state which enabled visual scoring of potential effects, and was therefore variable. Once this juncture was reached, the intensities of damage were scored visually in comparison to untreated, unstressed controls of the same age. The damage intensity was at first assessed in percent. […]

[1] = system: Triticum aestivum (TRZAS); assay: In vivo analyses Part A: drought stress, visual damage scoring, efficacy EF (TRZAS); conditions: spray application 25 g/ha, efficacy = reduction in damage intensity
Description: as §1

[2] = system: Triticum aestivum (TRZAS); assay: In vivo analyses Part C: drought stress, appearance vs stressed control plants in categories (TRZAS); design: key: 0: no positive effect; 10: slight positive effect; 20: clear positive effect; 30: strong positive effect; conditions: appearance vs stressed control plants after recovery phase, efficacy range of 3-4 pots
Description: Seeds of monocotyledonous and dicotyledonous crop plants were sown in sandy loam in plastic or wood-fibre pots, covered with soil or sand and cultivated in a greenhouse under good growth conditions. The test plants were treated at the early leaf stage (BBCH10-BBCH13). To assure uniform water supply before commencement of stress, the potted plants were supplied with water by dam irrigation prior to substance application. The inventive compounds were first formulated as wettable powders (WP) or dissolved in a solvent mixture. The further dilution was effected with water supplemented with 0.2% wetting agent (e.g. agrotin). The finished spray liquor was sprayed onto the green parts of the plant at an equivalent water application rate of 600 I/ha. Substance application was followed immediately by stress treatment of the plants. For this purpose, the wood-fibre pots were transferred in plastic inserts in order to prevent them from subsequently drying out too quickly. Drought stress was induced by gradual drying out under the following conditions: “Day”: 14 hours with illumination at 26-30° C. “Night”: 10 hours without illumination at 18-20° C. The duration of the respective stress phases was guided mainly by the condition of the stressed control plants. It was ended (by re-irrigating and transfer to a greenhouse with good growth conditions) as soon as irreversible damage was observed on the stressed control plants. The end of the stress phase was followed by an about 4-7-day recovery phase, during which the plants were once again kept under good growth conditions in a greenhouse. The duration of the recovery phase was guided mainly by when the trial plants had attained a state which enabled visual scoring of potential effects, and was therefore variable. Once this juncture had been reached, the appearance of the plants treated with test substances was recorded in comparison to the stressed control plants by the following categories: [table] For each substance and dosage, 3-4 pots were treated and evaluated. TRZAS=Triticum aestivum

Structure (SMILES)	EF [%] (BRSNS) (Brassica napus (BRSNS))	EF [%] (TRZAS) [1]	Effect (TRZAS) ([2]; dosage 25 g/ha)	Effect (TRZAS) ([2]; dosage 250 g/ha)
CCOC(=O)/C=C(\C#CC(O)(C(C)C)C1(C#N)CC1)C1CC1 (stereo not drawn) [I.1-124, Ethyl (2Z)-6-(1-cyanocyclopropyl)-3-cyclopropyl-6-hydroxy-7-methyloct-2-en-4-ynoate]	>5%	>5%	–	–
CCC(C=CC(O)(c1ccccc1)C1(C#N)CC1)=CC(=O)O (racemic) [I.2-201]	–	–	10	–
CCOC(=O)/C=C(/C)C#CC(O)(C(C)C)C1(C#N)CC1 (stereo not drawn) [I.1-136]	>5%	>5%	–	–
CC/C(C#CC(O)(C1CCC1)C1(C#N)CC1)=C/C(=O)OC (stereo not drawn) [I.1-648]	–	–	–	10-20

Source: patent US10322995B2, “Substituted cyano cycloalkyl penta-2,4-dienes, cyano cycloalkyl pent-2-en-4-ynes, cyano heterocyclyl penta-2,4-dienes and cyano heterocyclyl pent-2-en-4-ynes as active substances against abiotic plant stress” (BAYER CROPSCIENCE AKTIENGESELLSCHAFT, priority 2014, dated 2019)
